Assay results published in patent publication US5082843A, “Pyrazinyl and pyridazinyl ethers” (John Wyeth and Brother Limited, priority 1987, dated 1992).

Columns and labels:
5-HT3 receptors [1] = target: T1, 5-HT3 receptors (Oryctolagus cuniculus, UniProt A0A5F9C9J3); experiment: 5-HT3 antagonistic activity in the isolated right atrium of the rabbit heart; details: antagonism of 5-HT evoked increase in spontaneous rate of beating, read-out: apparent pKB (converted)
T1 construct: 5-HT3 receptors present on sympathetic nerve terminals in the heart; from tissue; host or cells: isolated right atrium of the rabbit heart (sympathetic nerve terminals)
T1 sequence (A0A5F9C9J3 1-494): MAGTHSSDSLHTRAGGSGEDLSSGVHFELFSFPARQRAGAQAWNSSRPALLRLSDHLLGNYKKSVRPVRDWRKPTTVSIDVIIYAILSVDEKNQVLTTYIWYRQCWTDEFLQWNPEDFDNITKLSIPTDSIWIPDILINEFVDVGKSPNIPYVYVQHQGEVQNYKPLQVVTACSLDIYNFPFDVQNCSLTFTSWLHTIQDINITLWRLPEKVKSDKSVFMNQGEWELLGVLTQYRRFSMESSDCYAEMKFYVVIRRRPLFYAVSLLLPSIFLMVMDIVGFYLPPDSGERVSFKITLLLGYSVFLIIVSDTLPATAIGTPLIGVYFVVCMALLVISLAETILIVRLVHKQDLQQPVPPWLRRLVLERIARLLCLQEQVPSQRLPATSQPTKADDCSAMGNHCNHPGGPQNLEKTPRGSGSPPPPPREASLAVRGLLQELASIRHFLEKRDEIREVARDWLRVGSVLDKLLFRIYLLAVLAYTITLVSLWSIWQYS
Method: The compounds of the invention are also tested for 5-HT3 antagonistic activity in the isolated right atrium of the rabbit heart based upon the method of Fozard J. R., Naunyn-Schmiedeberg's Arch. Pharmacol., 1984, 326, 36-44. This procedure relies upon the ability of 5-HT to stimulate 5-HT3 receptors present on sympathetic nerve terminals in the heart, causing release of noradrenaline which evokes an increase in the spontaneous rate of beating. The antagonist potency is expressed in a similar manner to that of the preceding test method i.e. as an apparent pKB.

5-HT3 receptors [2] = target: T2, 5-HT3 receptors (Rattus norvegicus, UniProt P35563); experiment: 5-HT3 receptor antagonism in the isolated vagus nerve of the rat (5-HT induced depolarization); details: isolated rat cervical vagus nerve; antagonism of 5-HT induced depolarization; from 5-HT concentration ratios; read-out: apparent pKB (converted)
T2 construct: isolated vagus nerve of the rat; from tissue; host or cells: isolated (cervical) vagus nerve of the rat
T2 sequence (P35563 24-483): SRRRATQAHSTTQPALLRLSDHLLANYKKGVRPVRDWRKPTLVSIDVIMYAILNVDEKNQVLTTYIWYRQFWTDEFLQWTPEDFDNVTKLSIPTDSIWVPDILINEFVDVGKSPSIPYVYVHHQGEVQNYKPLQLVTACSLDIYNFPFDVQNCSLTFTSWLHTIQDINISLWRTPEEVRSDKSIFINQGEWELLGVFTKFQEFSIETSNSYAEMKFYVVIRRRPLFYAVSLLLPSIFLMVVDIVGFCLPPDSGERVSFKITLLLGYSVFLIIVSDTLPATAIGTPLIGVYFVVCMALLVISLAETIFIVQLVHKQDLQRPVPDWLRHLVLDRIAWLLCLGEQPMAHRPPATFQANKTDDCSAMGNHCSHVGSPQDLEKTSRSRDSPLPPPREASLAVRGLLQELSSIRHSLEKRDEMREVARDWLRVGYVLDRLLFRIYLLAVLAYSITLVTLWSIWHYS
Method: The compound of the invention are tested for 5-HT3 receptor antagonism in the isolated vagus nerve of the rat by a method based upon that of Ireland S. J. and Tyers M. B., Brit. J. Pharmacol., 1987, 90, 229-238. The procedure relies upon the ability of 5-HT to induce depolarization of neurones in the cervical vagus nerve by a direct action on 5-HT3 receptors. A concentration-response curve to 5-HT induced depolarization is obtained and the antagonists are added to the bath containing the isolated nerve before repeating the 5-HT concentration-response curve. Antagonist potency is estimated for the 5-HT concentration ratios and expressed as an apparent pKB value (where KB is the antagonist dissociation constant).

With CN1[C@@H]2CC[C@H]1C[C@@H](Oc1ccc3ccccc3n1)C2 [Example 2, Endo-8-methyl-3-(2-quinolyloxy)-8-aza-bicyclo[3.2.1]octane] the Kb (5-HT3 receptors [1]) was 2.51 nM and the Kb (5-HT3 receptors [2]) was 31.6 nM.
